Values of other authors, collected in patent US11219614B2, “Combination cancer therapy with pentaaza macrocyclic ring complex and ascorbate compound” (Galera Labs, LLC, priority 2016, dated 2022).

Key:
[1] = tested on: lethal total body irradiation; conditions: adult mice; cited from earlier work
[2] = tested on: experimental model of colitis; conditions: rats; cited from earlier work
[3] = tested on: collagen-induced arthritis; conditions: rat; cited from earlier work
inflammation = conditions: rat model; cited from earlier work
[4] = tested on: radiation-induced oral mucositis; conditions: hamster, acute radiation-induced oral mucositis; cited from earlier work
[5] = pH 7, absence of catalytic metals; cited from earlier work

Question: For `[Cl-].[Cl-].[Mn+2].c1cc2nc(c1)CN[C@@H]1CCCC[C@H]1NCCN[C@@H]1CCCC[C@H]1NC2` [GC4403], which radiation damage [1] is on record?
Answer: attenuate the radiation damage

Question: What about the “injury to the colon” value [2] of the same compound?
Answer: very significantly reduce the injury to the colon

Question: And the joint disease [3]?
Answer: prevent joint disease

Question: What about the inflammation (inflammation) of the same compound?
Answer: inhibit inflammation

Question: And the radiation damage [4]?
Answer: attenuate the radiation damage

Question: Which stability of solution [5] does the source give for `O=C1O[C@H]([C@@H](O)CO)C(O)=C1O` [ascorbic acid, (5R)-[(1S)-1,2-Dihydroxyethyl]-3,4-dihydroxyfuran-2(5H)-one] here?
Answer: stable at pH 7
